For experiment [1], the target named is T1, nanobit-large-bit-ERK2 and nanobit-small-bit-PEA15 in WM793 cells (Homo sapiens, UniProt P28482).
T1 construct: expressed in transfected cells
The experiment is described as follows: NanoBiT assay. The class given is cell-based. The note with it: WM793 nanobit stable cell line, overnight incubation; read-out: NanoBiT qualified absolute AC50. As to the method: (§1) Cancer cell media was prepared by adding 500 mL of RPMI (ThermoFisher cat ##22400-089) and 10% Fetal Bovine Serum (Gibco) for WM793 cells (ATCC Cat #CRL-2806, RRID: CVCL 8787) and F12K (Thermo Fisher cat #21127-022, 500 mL; or 21127-030, 10×500 mL)+10% FBS for PC3 (ATCC CRL-1435) cells. The entire media with supplements was filter sterilized through a 0.4 μm bottle top filter system. Cancer cell lines were detached from traditional cell culture flasks by washing three times with 1×PBS and adding an appropriate amount of 0.25% TrypLE™ Express Enzyme (1×), no phenol red (ThermoFisher cat #12604013) to create a thin layer over the cells. Trypsin was neutralized with media containing serum and proceeded to count the cells.
A nanobit stable cell line was generated using WM793 cells with nanobit-large-bit-ERK2 and nanobit-small-bit-PEA15. […] In a biological safety cabinet, cells were seeded using a sterilized small stainless steel tipped cassette on a Multi-drop Combi. Between different cell lines, the tubing of the cassette was flushed with 1× sterile PBS for 10 s. Alternatively, cells can be seeded using a Multi-flow located within a Hepa filtered robotics room using either a sterilized small sapphire jewel tipped cassette and the peristatic pump, or the attached syringe pump, depending on volume of plates per cell line needed. The plates were placed in an incubator set at 37° C., with 5% CO2 and 95% relative humidity. A 10-point, 3-fold serial dilution of compounds was prepared in 100% DMSO on a liquid handling robot with a 10 mM top concentration. 90 nl/well was dispensed in three assay plates/1 compound source plate, with the highest concentration at 30 μM. After addition of compound was complete, the plates were placed into an incubator at 37° C., with 5% CO2 and 95% relative humidity for overnight. Luminescence was captured on a plate luminometer such as an Envision or View Lux to measure Day 0 time point both select cell lines. LUM plus, gain 3500, 0.1 s and focal height 12.5 [mm] on PheraStar reader. The raw data was extracted from the instrument and normalized all fields containing test compounds to the average of all wells containing DMSO alone as neutral control. From this value, the percent growth inhibition was calculated for each compound. Dose response curves and inhibitory IC50s were generated by graphing the normalized data values against the compound concentration using either a program such as GraphPad™ or Excel Fit.

Another experiment has as its system WM793 cells. The experiment is described as follows: Cell proliferation assay (CellTiter-Glo). It counts as cell-based. The note with it: 3 d, read-out: Cell proliferation qualified AC50. How it is done:
as §1
After counting the cells, the concentration of the cell solution was adjusted to seed a total of 750 cells per well in 50 μL of complete media into 384-well tissue culture treated plates. In a biological safety cabinet, cells were seeded using a sterilized small stainless steel tipped cassette on a Multi-drop Combi. Between different cell lines, the tubing of the cassette was flushed with 1× sterile PBS for 10 seconds. Alternatively, cells can be seeded using a Multi-flow located within a Hepa filtered robotics room using either a sterilized small sapphire jewel tipped cassette and the peristatic pump, or the attached syringe pump, depending on volume of plates per cell line needed. The plates were placed in an incubator set at 37° C., with 5% CO2 and 95% relative humidity. A 10-point, 3-fold serial dilutions of compounds in 100% DMSO was prepared on a liquid handling robot with a 10 mM top concentration. 100 nL/well in three assay plates/1 compound was dispensed to source plate, with the highest concentration at 20 μM. After addition of compound was complete, plates were placed into an incubator at 37° C., with 5% CO2 and 95% relative humidity for 3 d. An adequate volume of CellTiter-Glo® (Promega #G7571) detection reagent was pre-warmed to RT or in a 37° C. H2O bath. 25 μL of the reagent was added to each well using either a Multi-drop Combi or MultiFlo and incubate at RT for at least 15 min. Luminesce was captured on a plate luminometer such as an Envision or View Lux to measure Day 0 time point both select cell lines. LUM plus, gain 3500, 0.1 s and focal height 12.5 mm on PheraStar reader. At Day 3, an adequate volume of CellTiter-Glo® detection reagent was pre-warmed at RT or in a 37° C. H2O bath. A total of 25 μL of the reagent was added to each well using either a Multi-drop Combi or MultiFlo and incubate at RT for at least 15 min. Luminesce was captured on a plate luminometer such as an Envision or View Lux to measure Day 3 time point both select cell lines. LUM plus, gain 3500, 0.1 s and focal height 12.5 mm on PheraStar reader. Raw data was extracted from the instrument and all fields containing test compounds were normalized to the average of all wells containing DMSO alone from Day 3 as neutral control and Day 0 starting numbers. From this value, percent growth inhibition of each compound was calculated. Dose response curves and growth inhibitory IC50s were generated by graphing the normalized data values against the compound concentration using a program such as GraphPad™ or Excel Fit.
A general note: In ATP-based viability assays light output follows the ATP content of the culture.

Experiment [2] addresses T2, ERK2[2-360(p-T185/p-Y187)]-Avi (Homo sapiens, UniProt P28482).
T2 construct: 400 pM ERK2[2-360(p-T185/p-Y187)]-Avi was added to the plate
The experiment is described as follows: Biochemical assay (HTRF competition assay). It counts as binding. The note with it: HTRF competition with Example 15 probe, overnight at RT; read-out: Biochemical qualified AC50. How it is done: The competition assays were performed at RT in a 384-well white polystyrene, flat bottom plate (Greiner #784075) using a final reaction volume of 15 μL and the following assay buffer conditions: 50 mM MOPS, pH 7.2, 10 mM MgCl2, 0.5 mM TCEP, 0.01% Triton-X-100. 75 nL of a 10 mM compound solution in DMSO or 100% DMSO (12 point titration, final concentration: 50 μM-300 pM; final DMSO: 0.5%) was added using an acoustic liquid handler (Echo, Beckman Coulter) to wells containing 7.5 μL of 1-(6-((R)-3-(1-(5-chloro-1-((tetrahydro-2H-pyran-4-yl)methyl)-1H-indole-3-carbonyl)-4-(4-fluorophenyl)piperidine-4-carboxamido)pyrrolidin-1-yl)-6-oxohexyl)-3,3-dimethyl-5-sulfo-2-((1E,3E)-5-((E)-1,3,3-trimethyl-5-sulfoindolin-2-ylidene)penta-1,3-dien-1-yl)-3H-indol-1-ium (Example 15); 7.5 μL 400 pM SA-Tb (Cisbio, 610SATLB) and 400 pM ERK2[2-360(p-T185/p-Y187)]-Avi was added to the plate and incubated overnight at RT. HTRF signal was measured using a microplate reader (PheraStar, BMG Labtech) with excitation and emission wavelengths of […], respectively. The inhibitor dose-response curves were analyzed from the HTRF ratio signal using normalized IC50 regression curve fitting with control-based normalization.
In general terms: Time-resolved FRET reads energy transfer from a long-lived donor to a nearby acceptor.

Where two headings read alike, the source gives them in different places.

14 compounds from patent US20250092036A1, “COMPOUNDS AND COMPOSITIONS FOR MODULATING THE ACTIVITY OF ERK” (Novartis AG, priority 2023, published 2025) can be followed below.

T1 sequence (P28482 whole entry): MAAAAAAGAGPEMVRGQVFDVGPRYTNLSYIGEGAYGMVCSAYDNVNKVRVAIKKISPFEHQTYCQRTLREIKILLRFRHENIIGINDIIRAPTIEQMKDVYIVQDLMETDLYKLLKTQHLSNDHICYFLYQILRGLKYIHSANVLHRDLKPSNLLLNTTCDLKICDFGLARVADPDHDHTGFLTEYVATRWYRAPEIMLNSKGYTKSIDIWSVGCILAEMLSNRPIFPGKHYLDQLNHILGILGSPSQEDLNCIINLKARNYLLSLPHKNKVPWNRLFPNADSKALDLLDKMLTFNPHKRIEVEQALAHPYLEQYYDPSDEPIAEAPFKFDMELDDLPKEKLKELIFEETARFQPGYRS
T2 sequence (P28482 2-360 limits assumed): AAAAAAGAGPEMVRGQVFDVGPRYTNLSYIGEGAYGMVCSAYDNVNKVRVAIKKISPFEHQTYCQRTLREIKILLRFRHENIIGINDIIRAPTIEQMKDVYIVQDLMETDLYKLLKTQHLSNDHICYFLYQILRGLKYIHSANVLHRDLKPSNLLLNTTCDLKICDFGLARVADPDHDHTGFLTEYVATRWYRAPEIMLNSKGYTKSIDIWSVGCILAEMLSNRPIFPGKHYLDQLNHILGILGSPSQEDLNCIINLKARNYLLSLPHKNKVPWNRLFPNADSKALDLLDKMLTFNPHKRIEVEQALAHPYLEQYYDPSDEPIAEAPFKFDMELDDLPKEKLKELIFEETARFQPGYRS

For `CO[C@H]1CC[C@H](Cc2c(C)n(C(=O)N3CCC(C(=O)N[C@H]4CC[C@H](C(=O)O)CC4)(c4ccc(F)cc4)CC3)c3cc(F)ccc23)CC1` [Example 1c], the AC50 was 390 nM in experiment [1]; 940 nM in the experiment on WM793 cells (Homo sapiens, WM793, 72 h); 1.3 nM in experiment [2].
The like results for `CCc1c(C[C@H]2CC[C@H](OC3CCOCC3)CC2)c2ccc(F)cc2n1C(=O)N1CCC(C(=O)N[C@H]2C[C@H](C(=O)O)C[C@@H]2C)(c2ccc(F)cc2)CC1` [Example 1d] were, in that order, 300 nM, 110 nM and < 0.28 nM.
The like results for `CCc1c(C[C@H]2CC[C@H](OC3CCOCC3)CC2)c2ccc(F)cc2n1C(=O)N1CCC(C(=O)N[C@H]2CC[C@H](C(=O)O)CC2(C)C)(c2ccc(F)cc2)CC1` [Example 1e] were, in that order, 19 nM, 70 nM and < 0.28 nM.
In the same order, the values of `COCCc1c(C[C@H]2CC[C@H](OC(C)C)CC2)c2cc(F)c(F)cc2n1C(=O)N1CCC(C(=O)N[C@H]2CC[C@H](C(=O)O)C[C@@H]2C)(c2ccc(F)cc2)CC1` [Example 1f] are 140 nM, 52 nM and < 0.28 nM.
Take `COCCc1c(C[C@H]2CC[C@H](OC(C)C)CC2)c2ccc(Cl)cc2n1C(=O)N1CCC(C(=O)N[C@H]2CC[C@H](C(=O)O)C[C@@H]2C)(c2ccc(F)cc2)CC1` [Example 1g]: the AC50 in experiment [1] is 210 nM; with WM793 cells (Homo sapiens, WM793, 72 h), 93 nM; in experiment [2] it was < 0.28 nM.
Turning to `CCc1c(CC2CCOCC2)c2ccc(F)cc2n1C(=O)N1CCC(C(=O)N[C@H]2CC[C@H](C(=O)O)C[C@@H]2C)(c2ccc(F)cc2)CC1` [Example 1h], the AC50 in experiment [1] was 55 nM; in the experiment on WM793 cells (Homo sapiens, WM793, 72 h), 16 nM; in experiment [2], < 0.28 nM.
Consider `Cc1c(CC2CCC(OC(C)C)CO2)c2ccc(F)cc2n1C(=O)N1CC[C@@](C(=O)N[C@H]2CC[C@H](C(=O)O)C[C@@H]2C)(c2ccc(F)cc2)C[C@@H]1C` (stereo partly drawn) [Example 1i], for which the AC50 in experiment [1] was 31 nM; with WM793 cells (Homo sapiens, WM793, 72 h), 15 nM; in experiment [2], < 0.28 nM.
As for `CCc1c(C[C@H]2CC[C@H](OC3CCOCC3)CC2)c2ccc(F)cc2n1C(=O)N1CC[C@@](C(=O)N[C@H]2CC[C@H](C(=O)O)C[C@@H]2C)(c2ccccc2)C[C@@H]1C` [Example 1j], the AC50 in experiment [1] was 30 nM; in the experiment with WM793 cells (Homo sapiens, WM793, 72 h) it was 29 nM; in experiment [2] it was < 0.28 nM.
The like results for `CCc1c(C[C@H]2CC[C@H](OC3CCOCC3)CC2)c2ccc(F)cc2n1C(=O)N1CCC(C(=O)N[C@H]2CC[C@H](C(=O)O)C[C@@H]2C)(c2ccc(Cl)nc2)CC1` [Example 1k] were, in that order, 250 nM, 33 nM and 0.48 nM.
Consider `Cc1c(C[C@H]2CC[C@H](OC(C)C)CC2)c2ccc(F)cc2n1C(=O)N1CC[C@@](C(=O)N[C@H]2CC[C@H](C(=O)O)C[C@@H]2C)(c2ccc(F)cc2)C[C@@H]1C` [Example 1l], for which the AC50 was 270 nM in experiment [1]; 18 nM in the experiment with WM793 cells (Homo sapiens, WM793, 72 h); < 0.28 nM in experiment [2].
`CCc1c(C[C@H]2CC[C@H](OC(C)C)CC2)c2ccc(F)cc2n1C(=O)N1CCC(C(=O)N[C@H]2CC[C@H](C(=O)O)C[C@@H]2C)(c2ccc(F)cc2)CC1` [Example 2, (1S,3S,4S)-4-(1-(2-ethyl-6-fluoro-3-(((1r,4S)-4-isopropoxycyclohexyl)methyl)-1H-indole-1-carbonyl)-4-(4-fluorophenyl)piperidine-4-carboxamido)-3-methylcyclohexane-1-carboxylic acid]: the AC50 in experiment [1] is 190 nM; in the experiment on WM793 cells, 110 nM; in experiment [2], < 0.28 nM.
As for `COCCc1c(C[C@H]2CC[C@H](OC(C)C)CC2)c2ccc(F)cc2n1C(=O)N1CCC(C(=O)N[C@H]2CC[C@H](C(=O)O)C[C@@H]2C)(c2ccc(F)cc2)CC1` [Example 3, (1S,3S,4S)-4-(1-(6-fluoro-3-(((1r,4S)-4-isopropoxycyclohexyl)methyl)-2-(2-methoxyethyl)-1H-indole-1-carbonyl)-4-(4-fluorophenyl)piperidine-4-carboxamido)-3-methylcyclohexane-1-carboxylic acid], the AC50 in experiment [1] was 46 nM; with WM793 cells (Homo sapiens, WM793, 72 h), 60 nM; in experiment [2] it was 0.5 nM.
The like results for `C[C@H]1C[C@@H](C(=O)O)CC[C@@H]1NC(=O)[C@@]1(c2ccc(F)cc2)CCN(C(=O)N2CCc3ccc(F)cc32)[C@@H](C)C1` [Example 4b] were, in that order, 260 nM, 220 nM and 0.32 nM.
As to `CCc1c(C[C@H]2CC[C@H](OC3CCOCC3)CC2)c2ccc(F)cc2n1C(=O)N1CC[C@@](C(=O)N[C@H]2CC[C@H](C(=O)O)C[C@@H]2C)(c2ccc(F)cc2)C[C@@H]1C` [Example 6, (1S,3S,4S)-4-((2S,4S)-1-(2-ethyl-6-fluoro-3-(((1r,4S)-4-((tetrahydro-2H-pyran-4-yl)oxy)cyclohexyl)methyl)-1H-indole-1-carbonyl)-4-(4-fluorophenyl)-2-methylpiperidine-4-carboxamido)-3-methylcyclohexane-1-carboxylic acid], the figures for the AC50 (in experiment [1]; in the experiment on WM793 cells; in experiment [2]) were 72 nM, 23 nM and 0.98 nM, respectively.
